Among the data in patent US20200181104A1, “SSAO INHIBITORS AND USES THEREOF” (METACRINE, INC., priority 2018, published 2020) are IC50 values, retold here.

Where a name gives a salt, the structure may show the parent alone.

The target of this test is T1, Recombinant Human SSAO/VAP-1/AOC3 (Homo sapiens, UniProt Q16853).
T1 construct: purchased R&D systems 3957-AO
T1 sequence (Q16853 1-763): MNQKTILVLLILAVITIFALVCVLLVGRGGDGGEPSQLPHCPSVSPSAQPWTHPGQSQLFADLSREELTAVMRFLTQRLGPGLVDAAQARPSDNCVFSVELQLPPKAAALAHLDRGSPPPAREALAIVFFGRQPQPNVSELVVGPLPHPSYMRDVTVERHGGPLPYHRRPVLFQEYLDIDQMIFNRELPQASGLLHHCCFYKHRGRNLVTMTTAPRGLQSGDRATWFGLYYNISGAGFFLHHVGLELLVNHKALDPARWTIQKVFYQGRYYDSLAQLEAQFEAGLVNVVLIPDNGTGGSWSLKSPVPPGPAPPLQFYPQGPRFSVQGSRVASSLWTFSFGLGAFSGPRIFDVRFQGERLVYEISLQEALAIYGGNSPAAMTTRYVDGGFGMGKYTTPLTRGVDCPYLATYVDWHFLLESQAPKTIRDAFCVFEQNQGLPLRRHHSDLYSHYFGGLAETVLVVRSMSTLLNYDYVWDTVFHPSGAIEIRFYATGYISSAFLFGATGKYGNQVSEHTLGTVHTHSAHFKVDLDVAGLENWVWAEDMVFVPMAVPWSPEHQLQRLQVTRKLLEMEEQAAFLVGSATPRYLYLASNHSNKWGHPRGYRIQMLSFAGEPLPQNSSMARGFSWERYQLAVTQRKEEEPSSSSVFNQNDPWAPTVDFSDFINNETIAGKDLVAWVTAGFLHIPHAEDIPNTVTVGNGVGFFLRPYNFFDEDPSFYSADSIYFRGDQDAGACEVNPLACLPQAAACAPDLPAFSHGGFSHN
The test can be described thus: Human Semicarbazide-Sensitive Amine Oxidase (SSAO) Assay. The test is classed as biochemical. Conditions: recombinant enzyme, 30 minutes preincubation at 37° C., benzylamine substrate, Amplex Ultra Red/HRP fluorescence. The essentials:
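IC50 from kinetic Amplex Ultra Red/HRP fluorescence (ex 544, em 590 nm, 30-120 min) after benzylamine addition. Beforehand, 6-10 compound dilutions were preincubated 30 min at 37 °C with recombinant human SSAO in 50 mM HEPES (enzyme working concentration 2.5 μg/ml).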
The term IC50 denotes the concentration needed to halve the response being measured. Consider `CC(C)(CO)NC(=O)C12CCC(c3ccc(OC/C(=C/F)CN)cc3)(CC1)CC2` [Compound 2.34, (E)-4-(4-((2-(aminomethyl)-3-fluoroallyl)oxy)phenyl)-N-(1-hydroxy-2-methylpropan-2-yl)bicyclo[2.2.2]octane-1-carboxamide], for which the concentration for half-maximal inhibition (IC50) is not above 10 nM.
For `NC/C(=C\F)COc1ccc(C23CCC(C(=O)NCCOC4CCOCC4)(CC2)CC3)cc1` [Compound 2.107], the concentration for half-maximal inhibition (IC50) was not above 10 nM.
As to `NC/C(=C\F)COc1ccc(C23CCC(C(=O)NCC4(F)CCOCC4)(CC2)CC3)cc1` [Compound 2.33, (E)-4-(4-((2-(aminomethyl)-3-fluoroallyl)oxy)phenyl)-N-((4-fluorotetrahydro-2H-pyran-4-yl)methyl)bicyclo[2.2.2]octane-1-carboxamide], the IC50 was not above 10 nM.
With `CNC(=O)CCNC(=O)C12CCC(c3ccc(OC/C(=C/F)CN)cc3)(CC1)CC2` [Compound 2.17, (E)-4-(4-((2-(amino-methyl)-3-fluoroallyl)oxy)phenyl)-N-(3-(methylamino)-3-oxopropyl)bicyclo[2.2.2] octane-1-carboxamide], the IC50 is not above 10 nM.
For the compound `NC/C(=C\F)COc1ccc(C23CCC(C(=O)NC4(C(F)(F)F)CCOCC4)(CC2)CC3)cc1` [Compound 2.152, (E)-4-(4-((2-(aminomethyl)-3-fluoroallyl)oxy)phenyl)-N-(4-(trifluoromethyl)tetrahydro-2H-pyran-4-yl)bicyclo[2.2.2]octane-1-carboxamide], the IC50 fell in the range of 10 to 100 nM.
Consider `NC/C(=C\F)COc1ccc(C23CCC(C(=O)NC45CC(O)(C4)C5)(CC2)CC3)cc1` [Compound 2.93, (E)-4-(4-((2-(aminomethyl)-3-fluoroallyl)oxy)phenyl)-N-(3-hydroxybicyclo[1.1.1]pentan-1-yl)bicyclo[2.2.2]octane-1-carboxamide], for which the IC50 is not above 10 nM.
The result for `CC1(C)CC(NC(=O)C23CC(c4ccc(OC/C(=C/F)CN)cc4)(C2)C3)CC(C)(C)O1` [Compound 3.02, (E)-3-(4-((2-(aminomethyl)-3-fluoroallyl)oxy)phenyl)-N-(2,2,6,6-tetramethyltetrahydro-2H-pyran-4-yl)bicyclo[1.1.1]pentane-1-carboxamide] reads not above 10 nM; that for `CN(CCO)C(=O)C12CCC(c3ccc(OC/C(=C/F)CN)cc3)(CC1)CC2` [Compound 2.54, (E)-4-(4-((2-(aminomethyl)-3-fluoroallyl)oxy)phenyl)-N-(2-hydroxyethyl)-N-methylbicyclo[2.2.2]octane-1-carboxamide], not above 10 nM; that for `N#CC1(CNC(=O)C23CCC(c4ccc(OC/C(=C/F)CN)cc4)(CC2)CC3)CCOCC1` [Compound 2.62, (E)-4-(4-((2-(aminomethyl)-3-fluoroallyl)oxy)phenyl)-N-((4-cyanotetrahydro-2H-pyran-4-yl)methyl)bicyclo[2.2.2]octane-1-carboxamide], not above 10 nM.
In the case of `CC(C)N(CCO)C(=O)C12CCC(c3ccc(OC/C(=C/F)CN)cc3)(CC1)CC2` [Compound 2.38, (E)-4-(4-((2-(aminomethyl)-3-fluoroallyl)oxy)phenyl)-N-(2-hydroxyethyl)-N-isopropylbicyclo[2.2.2]octane-1-carboxamide], the half-maximal inhibitory concentration (IC50) was not above 10 nM.
The result for `NC/C(=C\F)COc1ccc([C@]23CC4CC(C2)[C@@H](C(=O)NC2CCOCC2)C(C4)C3)cc1` (single isomer, unassigned) [Compound 6.02, syn-5-(4-(((E)-2-(Aminomethyl)-3-fluoroallyl)oxy)phenyl)-N-(tetrahydro-2H-pyran-4-yl)adamantane-2-carboxamide Hydrochloride] reads not above 10 nM; that for `NC/C(=C\F)COc1ccc(C23CCC(C(=O)N4CC(O)C4)(CC2)CC3)cc1` [Compound 2.29, (E)-(4-(4-((2-(aminomethyl)-3-fluoroallyl)oxy)phenyl)bicyclo [2.2.2]octan-1-yl)(3-hydroxyazetidin-1-yl)methanone], not above 10 nM.
The result for `COC(=O)C1CCN(C(=O)C23CCC(c4ccc(OC/C(=C/F)CN)cc4)(CC2)CC3)CC1` [Compound 2.12, (E)-methyl 1-(4-(4-((2-(aminomethyl)-3-fluoroallyl)oxy)phenyl)bicyclo[2.2.2]octane-1-carbonyl)piperidine-4-carboxylate] reads not above 10 nM; that for `NC/C(=C\F)COc1ccc(C23CCC(C(=O)N4CCCOCC4)(CC2)CC3)cc1` [Compound 2.50, (E)-(4-(4-((2-(aminomethyl)-3-fluoroallyl)oxy)phenyl)bicyclo [2.2.2]octan-1-yl)(1,4-oxazepan-4-yl)methanone], not above 10 nM; that for `COc1cnc(CNC(=O)C23CCC(c4ccc(OC/C(=C/F)CN)cc4)(CC2)CC3)cn1` [Compound 2.160, (E)-4-(4-((2-(aminomethyl)-3-fluoroallyl)oxy)phenyl)-N-((5-methoxypyrazin-2-yl)methyl)bicyclo[2.2.2]octane-1-carboxamide], not above 10 nM.
In the case of `CNC(=O)C1(c2ccc(OC/C(=C/F)CN)cc2)CCCCC1` [Compound 1.01, (E)-1-(4-((2-(Aminomethyl)-3-fluoroallyl)oxy)phenyl)-N-methylcyclohexanecarboxamide], the IC50 lay within 10 to 100 nM.
Regarding `NC/C(=C\F)COc1ccc(C23CCC(C(=O)NC4(CO)CCOCC4)(CC2)CC3)cc1` [Compound 2.72, (E)-4-(4-((2-(aminomethyl)-3-fluoroallyl)oxy)phenyl)-N-(4-(hydroxymethyl)tetrahydro-2H-pyran-4-yl)bicyclo[2.2.2]octane-1-carboxamide], the half-maximal inhibitory concentration (IC50) is not above 10 nM.
Regarding `COc1ccccc1CNC(=O)C12CCC(c3ccc(OC/C(=C/F)CN)cc3)(CC1)CC2` [Compound 2.128, (E)-4-(4-((2-(aminomethyl)-3-fluoroallyl)oxy)phenyl)-N-(2-methoxybenzyl)bicyclo[2.2.2] octane-1-carboxamide], the IC50 is not above 10 nM.
On to `NC/C(=C\F)COc1ccc(C23CCC(c4nnc(C5CCOCC5)o4)(CC2)CC3)cc1` [Compound 11.02, (E)-3-fluoro-2-((4-(4-(5-(tetrahydro-2H-pyran-4-yl)-1,3,4-oxadiazol-2-yl)bicyclo[2.2.2]octan-1-yl)phenoxy)methyl)prop-2-en-1-amine], for which the IC50 was not above 10 nM.
On to `Cc1cnc(CNC(=O)C23CCC(c4ccc(OC/C(=C/F)CN)cc4)(CC2)CC3)cn1` [Compound 2.158, (E)-4-(4-((2-(aminomethyl)-3-fluoroallyl)oxy)phenyl)-N-((5-methylpyrazin-2-yl)methyl)bicyclo[2.2.2]octane-1-carboxamide], for which the IC50 was not above 10 nM.
For `NC/C(=C\F)COc1ccc(C23CCC(C(=O)NC4CC5(CCOCC5)C4)(CC2)CC3)cc1` [Compound 2.114, (E)-4-(4-((2-(aminomethyl)-3-fluoroallyl)oxy)phenyl)-N-(7-oxaspiro[3.5]nonan-2-yl)bicyclo[2.2.2]octane-1-carboxamide], the IC50 is not above 10 nM.
With `CNC(=O)C12CCCC(c3ccc(OC/C(=C/F)CN)cc3)(CC1)CC2` [Compound 10, (E)-5-(4-((2-(Aminomethyl)-3-fluoroallyl)oxy)phenyl)-N-methylbicyclo[3.2.2]nonane-1-carboxamide Hydrochloride], the IC50 was not above 10 nM.
The result for `COCC(C)(C)CNC(=O)C12CCC(c3ccc(OC/C(=C/F)CN)cc3)(CC1)CC2` [Compound 2.132, (E)-4-(4-((2-(aminomethyl)-3-fluoroallyl)oxy)phenyl)-N-(3-methoxy-2,2-dimethylpropyl)bicyclo[2.2.2] octane-1-carboxamide] reads not above 10 nM; that for `COCCC(=O)NC12CCC(c3ccc(OC/C(=C/F)CN)cc3)(CC1)CC2` [Compound 7.02, (E)-N-(4-(4-((2-(aminomethyl)-3-fluoroallyl)oxy)phenyl)bicyclo [2.2.2]octan-1-yl)-3-methoxypropanamide], not above 10 nM.
The same measure for `NC/C(=C\F)COc1ccc([C@]23CC4CC(C2)[C@H](C(=O)NC2CCOCC2)C(C4)C3)cc1` (single isomer, unassigned) [Compound 6.03, anti-5-(4-(((E)-2-(Aminomethyl)-3-fluoroallyl)oxy)phenyl)-N-(tetrahydro-2H-pyran-4-yl)adamantane-2-carboxamide Hydrochloride]: not above 10 nM; for `CO[C@H]1C[C@@H](NC(=O)C23CCC(c4ccc(OC/C(=C/F)CN)cc4)(CC2)CC3)C1` [Compound 2.95, 4-(4-(((E)-2-(Aminomethyl)-3-fluoroallyl)oxy)phenyl)-N-(cis-3-methoxycyclobutyl)bicyclo[2.2.2]octane-1-carboxamide Hydrochloride]: not above 10 nM; for `CC1(NC(=O)C23CCC(c4ccc(OC/C(=C/F)CN)cc4)(CC2)CC3)CCCOC1` (stereo not drawn) [Compound 2.65, (E)-4-(4-((2-(aminomethyl)-3-fluoroallyl)oxy)phenyl)-N-(3-methyltetrahydro-2H-pyran-3-yl)bicyclo[2.2.2]octane-1-carboxamide]: not above 10 nM.
